Test results: ChEMBL document CHEMBL6087442, “Modulating the Potency of BRD4 PROTACs at the Systems Level with Amine-Acid Coupling Reactions” (J Med Chem, 2025)
pIC50: −log10 of the molar value.

Key:
[1] = biological target: T1, von Hippel-Lindau disease tumor suppressor/Bromodomain-containing protein 4 (Homo sapiens, UniProt O60885+P40337); assay: PROTAC activity at VHL/BRD4 in HEK293 cells assessed as induction of BRD4 degradation incubated for 24 hrs by HTRF assay; type: cell-based
[2] = Chromatographic hydrophobicity index, logD of the compound at pH 7.4; type: physicochemical; conditions: buffer
[3] = biological target: T1, von Hippel-Lindau disease tumor suppressor/Bromodomain-containing protein 4; assay: PROTAC activity at VHL/BRD4 in HEK293 cells assessed as induction of BRD4 degradation by measuring maximal efficacy incubated for 24 hrs by HTRF assay relative to control; type: cell-based
Protein cereblon [4] = biological target: T2, Protein cereblon (Homo sapiens, UniProt Q96SW2); assay: Binding affinity to NanoLuc-fused CRBN (unknown origin) transfected in permeabilized HEK293 cells using NanoGlo as substrate incubated for 2 hrs by NanoBRET assay; type: cell-based
[5] = biological target: Bromodomain-containing protein 4 (Homo sapiens, UniProt O60885); assay: Binding affinity to N-terminal GST-tagged BRD4-BD1 (unknown origin) using biotinylated histon4 peptide as substrate incubated for 30 mins by HTRF assay
[6] = biological target: T3, Protein cereblon/Bromodomain-containing protein 4 (Homo sapiens, UniProt O60885+Q96SW2); assay: PROTAC activity at CRBN/BRD4 in HEK293 cells assessed as induction of BRD4 degradation incubated for 24 hrs by HTRF assay; type: cell-based
Protein cereblon [7] = biological target: T2, Protein cereblon; assay: Binding affinity to NanoLuc-fused CRBN (unknown origin) transfected in live HEK293 cells using NanoGlo as substrate incubated for 2 hrs by NanoBRET assay; type: cell-based
[8] = biological target: T4, Protein cereblon/Bromodomain-containing protein 4/DNA damage-binding protein 1 (Homo sapiens) (UniProt O60885+Q96SW2+Q16531); assay: Binding affinity to biotinylated CRBN/DDB1/N-terminal GST-tagged BRD4-BD1 (unknown origin) assessed as ternary complex formation (KTF) by HTRF assay; type: protein assay
Homo sapiens = organism: Homo sapiens; assay: Selectivity ratio of IC50 for NanoLuc-fused CRBN (unknown origin) transfected in live HEK293 cells to IC50 for NanoLuc-fused CRBN (unknown origin) transfected in permeabilized HEK293 cells; type: cell-based
[9] = biological target: T4, Protein cereblon/Bromodomain-containing protein 4/DNA damage-binding protein 1 (Homo sapiens); assay: Binding affinity to biotinylated CRBN/DDB1/N-terminal GST-tagged BRD4-BD1(unknown origin) assessed as ternary complex formation (AUC) by HTRF assay; type: protein assay
[10] = biological target: T3, Protein cereblon/Bromodomain-containing protein 4; assay: PROTAC activity at CRBN/BRD4 in HEK293 cells assessed as induction of BRD4 degradation by measuring maximal efficacy incubated for 24 hrs by HTRF assay relative to control; type: cell-based

T1 sequence (P40337 whole entry, looked up, other chains not shown): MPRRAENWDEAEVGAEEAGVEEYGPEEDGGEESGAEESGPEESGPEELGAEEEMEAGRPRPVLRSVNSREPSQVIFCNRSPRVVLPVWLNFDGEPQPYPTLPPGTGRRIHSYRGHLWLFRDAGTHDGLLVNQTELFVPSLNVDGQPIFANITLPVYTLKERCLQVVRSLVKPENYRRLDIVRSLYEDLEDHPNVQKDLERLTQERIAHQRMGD

SMILES | DC50 [1] [nM] | chromatographic logD [2] | Emax [3] [%] | pIC50 (Protein cereblon [4]) | pIC50 [5] | DC50 [6] [nM] | pIC50 (Protein cereblon [7]) | Emax [10] [%] | K [8] [nM] | Ratio IC50 (Homo sapiens) | AUC [9]
Cc1sc2c(c1C)C(c1ccc(Cl)cc1)=N[C@@H](CCCCCNC(=O)COc1cccc3c1C(=O)N(C1CCC(=O)NC1=O)C3=O)c1nnc(C)n1-2 (stereo not given in full) |  | 2.81 |  | 6.92 | 7.17 | 10.8 | 6.30 | 76 | 29.2 | 4.2 | 156
Cc1sc2c(c1C)C(c1ccc(Cl)cc1)=N[C@@H](CC(=O)CCCCNC(=O)COc1cccc3c1C(=O)N(C1CCC(=O)NC1=O)C3=O)c1nnc(C)n1-2 (stereo not given in full) |  | 2.57 |  | 6.97 | 7.62 | 9.2 | 6.37 | 85 | 6.7 | 3.9 | 251
Cc1sc2c(c1C)C(c1ccc(Cl)cc1)=N[C@@H](CCNCCCCNC(=O)COc1cccc3c1C(=O)N(C1CCC(=O)NC1=O)C3=O)c1nnc(C)n1-2 (stereo not given in full) |  | 1.66 |  | 6.99 | 6.34 | > 11000 | 4.95 | 2 | 108 | 110 | 71.5
Cc1sc2c(c1C)C(c1ccc(Cl)cc1)=N[C@@H](CC(=O)NCCCCNC(=O)COc1cccc3c1C(=O)N(C1CCC(=O)NC1=O)C3=O)c1nnc(C)n1-2 (stereo not given in full) |  | 2.16 |  |  |  |  |  | 80 | 9.4 |  | 163
Cc1sc2c(c1C)C(c1ccc(Cl)cc1)=N[C@@H](CC(=O)OCCCCNC(=O)COc1cccc3c1C(=O)N(C1CCC(=O)NC1=O)C3=O)c1nnc(C)n1-2 (stereo not given in full) |  | 2.68 |  | 7.16 | 8.64 | 5.4 | 6.58 | 83 | 5 | 2.4 | 158

Further lines, with some results ahead:

DC50 [1] [nM] | chromatographic logD [2] | Emax [3] [%] | pIC50 (Protein cereblon [4]) | pIC50 [5] | DC50 [6] [nM] | pIC50 (Protein cereblon [7]) | Emax [10] [%] | SMILES | K [8] [nM] | Ratio IC50 (Homo sapiens) | AUC [9]
> 11000 | 2.3 | 14 |  |  |  |  |  | Cc1ncsc1-c1ccc(CNC(=O)[C@@H]2C[C@@H](O)CN2C(=O)[C@H](C(C)C)N2Cc3ccccc3C2=O)c(OCCCOCCNCC[C@@H]2N=C(c3ccc(Cl)cc3)c3c(sc(C)c3C)-n3c(C)nnc32)c1 |  |  | 
228 | 3.38 | 58 |  |  |  |  |  | Cc1ncsc1-c1ccc(CNC(=O)[C@@H]2C[C@@H](O)CN2C(=O)[C@H](C(C)C)N2Cc3ccccc3C2=O)c(OCCCOCCCC[C@@H]2N=C(c3ccc(Cl)cc3)c3c(sc(C)c3C)-n3c(C)nnc32)c1 |  |  | 
68.3 | 2.78 | 87 |  |  |  |  |  | Cc1ncsc1-c1ccc(CNC(=O)[C@@H]2C[C@@H](O)CN2C(=O)[C@H](C(C)C)N2Cc3ccccc3C2=O)c(OCCCOCCNC(=O)C[C@@H]2N=C(c3ccc(Cl)cc3)c3c(sc(C)c3C)-n3c(C)nnc32)c1 |  |  | 
15.8 | 3.25 | 89 |  |  |  |  |  | Cc1ncsc1-c1ccc(CNC(=O)[C@@H]2C[C@@H](O)CN2C(=O)[C@H](C(C)C)N2Cc3ccccc3C2=O)c(OCCCOCCOC(=O)C[C@@H]2N=C(c3ccc(Cl)cc3)c3c(sc(C)c3C)-n3c(C)nnc32)c1 |  |  | 
13.4 | 3.16 | 79 |  |  |  |  |  | Cc1ncsc1-c1ccc(CNC(=O)[C@@H]2C[C@@H](O)CN2C(=O)[C@H](C(C)C)N2Cc3ccccc3C2=O)c(OCCCOCCC(=O)C[C@@H]2N=C(c3ccc(Cl)cc3)c3c(sc(C)c3C)-n3c(C)nnc32)c1 |  |  | 
